Results published in PMC5707067, “Farnesyl phenolic enantiomers as natural MTH1 inhibitors from Ganoderma sinense” (Oncotarget, 2017).

Assays:
MTH1 = MTH1 (Homo sapiens, UniProt P36639); assay: Enzyme inhibition assay (8-oxo-dGTP hydrolysis, HPLC); assay type: biochemical; design: hexa-histidine (His6) (N, cleaved yes); made in house; host or cells: E. coli BL21 Star; details: 8-oxo-dGTP 25 μM, purified MTH1
Procedure: Microscale thermophoresis method (MST) was employed to assay the binding affinity between the compounds and MTH1. This technology can quantify protein-protein interactions or protein-small molecule interactions with high sensitivity through detecting fluorescent changes of molecules during thermophoresis.
To identify the efficacy of the eight compounds, an enzyme inhibition assay was carried out. […] Then the reaction was stop by the addition of 20 μL ice-cold Na2EDTA (50 mM). The reaction mixture was centrifugated at 15000 rpm at 4°C for 10 min. 20 μL of supernatant was injected on an HPLC column (Ultimate AQ-C18 RP-18e, 250 mm × 4.6 mm × 5 μm), and eluted isolate with 100 mM Na2HPO4-NaOH (pH 5.5)/MeOH 95:5 with flow rate 1 mL/min at column room of 30°C. […] Measurements were done in triplet, and IC50 values were calculated to compare the efficiency of various compounds.

SW620 cells (53BP1 foci) = assay: 53BP1 foci immunofluorescence; assay type: cell-based, human; details: 50 μM, 24 h vs control, P<0.01
Procedure: Meanwhile, MTH1 could prevent the mispairing of bases during replication and transversion mutations. Presumably, its inhibitors could cause DNA damage. P53 binding protein 1 (p53-binding, protein 1, 53BP1) is an important regulatory factor in response to double strand breaks.
Cells which adhered to glass coverslips were treated with DMSO or compounds (50 μM) for 24 h. Then cells were washed with PBS and then fixed with 3% paraformaldehyde in PBS for 20 min […]. Fixed cells were rinsed with PBS and incubated with penetrating agent (0.5% Triton-X-100) in PBS for 5 min. Next, cells were stained with an anti-53BP1 monoclonal antibody (abcam, diluted 1:250). Then the coverslips were rinsed with PBS at least 3 times andincubated with an Alexa Fluor 568 goat anti-rabbit IgG secondary antibody. After PBS rinsing, coverslips were stained with DAPI (sigma). Then the morphology was observed by confocal microscopy (Zeiss, OBSERVER D1/AX10 cam HRC).

SW620 cells [1] = assay: EdU cell proliferation assay; assay type: cell-based, human; details: 50 μM or 150 μM vs control, P<0.001
Procedure: EdU cell proliferation assays were carried out to detect the effects of compounds on DNA replication. EdU (5-Ethynyl-2- deoxyuridine), a thymidine analog, can penetrate into the replicating DNA molecule. Based on the specific response of EdU and fluorescent dyes, DNA replication activity could be detected.
SW620 cells were pretreated with 0, 50, 150 μM of compound 1, respectively. Dissociated cells were handled with EdU cell proliferation kit (RiboBio) according to the manuscript by according to the manufacturer's instructions. Then the morphology was observed by fluorescence microscopy (Zeiss, OBSERVER D1/AX10 cam HRC).

SW620 cells [2] = assay: Apoptosis analysis (Annexin V/PI flow cytometry); assay type: cell-based, human; details: 24 hours, control group 12.03%
Procedure: The apoptosis of cells induced by compounds was further investigated. SW620 cells were pretreated with series concentration of compound 1 for 24 hours. The number of apoptosis cells was quantified by flow cytometry.
Figure 5 Compound 1 induced DNA damage and hindered the replication of DNA in cancer cells causing cell apoptosis (A) SW620 cells were treated with 0, 50 or 150 μM of compound 1 and then processed for FACS by using Annexin V/propidium iodide staining. (B, C) Immunofluorescence staining analysis of EDU^+ and quantification of EDU^+ in SW620 cells treated with 0, 50 or 150 μM of compound 1. Stained graphs were observed through a fluorescence microscope (× 200 magnification). Bar = 20 μm. Data are shown as mean ± s.d. (n = 3). (D, E, F) Immunofluorescence staining analysis of 53BP1 and quantification of 53BP1 foci formation in SW620 treated for 24 h with 50 μM of compound 1. It was observed through a confocal microscope (× 400 magnification). Bar = 50 μm Data are shown as mean ± s.d. (n = 3). […]
Apoptotic cells were staining with Annexin-V-FITC and Propidium Iodide (PI) (Annexin V-FITC/PI double staining cell apoptosis detection kit) following the manufacturer's protocol. Fluorescence was recorded by flow cytometry using the FACSort (BD Bio sciences).

IC50 (MTH1): 10.9 ± 1.04 µM
SMILES: CO[C@]1(c2cc(O)cc(O)c2)C=C(CCCC(CO)CC/C=C(\C)COC(=O)/C=C/c2ccc(O)cc2)C(=O)O1 (stereo partly drawn) [Compound 1, (5R)-3-{9-[(E)-coumaroyl]-4-hydroxymethyl-8-methyl-7-nonene}-5-(3,5-dihydroxyphenyl)-5-methoxy-2(5H)-furanone]
53BP1 foci formation (SW620 cells (53BP1 foci)): significantly aggregated
percentage of EdU+ cells (SW620 cells [1]): significantly deceased
SW620 cells apoptotic death (SW620 cells [2]; 50 μM): 45.09%
SW620 cells apoptotic death (SW620 cells [2]; 150 μM): 91.11%
